Reference: ChEMBL document CHEMBL5321280, “Novel 4-Arylindolines Containing a Pyrido[3,2-d]pyrimidine Moiety as the Programmed Cell Death-1/Programmed Cell Death-Ligand 1 Interaction Inhibitors for Tumor Immunotherapy” (J Med Chem, 2023)
Blank lines part the entries; values can stand above or below the compound they belong to. Calls of active or inactive are those of the source. No cut-off for these calls is given here.

Tests used:
[1] = target: Programmed cell death protein 1/Programmed cell death 1 ligand 1 (Homo sapiens, UniProt Q15116+Q9NZQ7); assay: Inhibition of PD-1/PD-L1 (unknown origin) protein-protein interaction incubated for 105 mins by HTRF assay; format: protein-complex assay
Sequence of Programmed cell death protein 1/Programmed cell death 1 ligand 1 (Q15116 whole entry): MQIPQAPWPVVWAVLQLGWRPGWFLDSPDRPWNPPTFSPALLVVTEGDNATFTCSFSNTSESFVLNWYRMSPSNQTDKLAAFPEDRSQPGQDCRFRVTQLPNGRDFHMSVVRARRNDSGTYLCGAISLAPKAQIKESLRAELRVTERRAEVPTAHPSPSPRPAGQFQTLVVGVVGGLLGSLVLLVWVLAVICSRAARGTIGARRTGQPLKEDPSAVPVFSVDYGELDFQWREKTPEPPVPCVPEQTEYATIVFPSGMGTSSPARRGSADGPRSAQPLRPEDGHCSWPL
Sequence of Programmed cell death protein 1/Programmed cell death 1 ligand 1 (Q9NZQ7 whole entry): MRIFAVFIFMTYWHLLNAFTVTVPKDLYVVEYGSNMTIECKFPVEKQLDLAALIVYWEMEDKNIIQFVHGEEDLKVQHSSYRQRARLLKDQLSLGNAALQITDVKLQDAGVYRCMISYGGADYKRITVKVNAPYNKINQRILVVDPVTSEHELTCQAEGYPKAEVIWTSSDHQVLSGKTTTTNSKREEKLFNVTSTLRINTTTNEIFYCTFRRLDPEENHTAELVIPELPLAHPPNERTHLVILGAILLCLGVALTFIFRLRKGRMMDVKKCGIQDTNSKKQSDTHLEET

[2] = tested on: T-cell; assay: Immunomodulatory activity in concanavalin A stimulated BALB/c mouse T-lymphocyte co-cultured with mouse CT26 cells overexpressing PD-L1 assessed as increase in proportion of CD3 positive CD69 positive T cells at 80 nM incubated for 48 hrs by flow cytometry (reference value: 41.22%); format: functional
[3] = tested on: T-cell; assay: Immunomodulatory activity in concanavalin A stimulated BALB/c mouse T-lymphocyte co-cultured with mouse CT26 cells assessed as increase in T cell proliferation at 5 to 80 nM incubated for 48 hrs by flow cytometry; format: functional, cell-based; details: dose 5-80 nM
[4] = tested on: T-cell; assay: Immunomodulatory activity in concanavalin A stimulated BALB/c mouse T-lymphocyte co-cultured with mouse CT26 cells overexpressing PD-L1 assessed as increase in T cell proliferation at 5 to 80 nM incubated for 48 hrs by flow cytometry; format: functional, cell-based; details: dose 5-80 nM
[5] = tested on: T-cell; assay: Immunomodulatory activity in concanavalin A stimulated BALB/c mouse T-lymphocyte co-cultured with mouse CT26 cells assessed as T cell proliferation at 20 nM incubated for 48 hrs by flow cytometry (reference value: 64.08 +/- 0.91%); format: functional
[6] = tested on: T-cell; assay: Immunomodulatory activity in concanavalin A stimulated BALB/c mouse T-lymphocyte co-cultured with mouse CT26 cells overexpressing PD-L1 assessed as increase in proportion of CD3 positive CD69 positive T cells at 20 nM incubated for 48 hrs by flow cytometry (reference value: 39.97%); format: functional
[7] = tested on: T-cell; assay: Immunomodulatory activity in concanavalin A stimulated BALB/c mouse T-lymphocyte co-cultured with mouse CT26 cells overexpressing PD-L1 assessed as increase in proportion of CD3 positive CD8 positive T cells at 80 nM incubated for 48 hrs by flow cytometry (reference value: 14.38%); format: functional
[8] = tested on: T-cell; assay: Immunomodulatory activity in concanavalin A stimulated BALB/c mouse T-lymphocyte co-cultured with mouse CT26 cells overexpressing PD-L1 assessed as increase in proportion of CD3 positive CD8 positive T cells at 20 nM incubated for 48 hrs by flow cytometry (reference value: 15.01%); format: functional
[9] = tested on: T-cell; assay: Immunomodulatory activity in concanavalin A stimulated BALB/c mouse T-lymphocyte co-cultured with mouse CT26 cells overexpressing PD-L1 assessed as T cell proliferation at 20 nM incubated for 48 hrs by flow cytometry (reference value: 58.47 +/- 2.07%); format: functional
[10] = Metabolic stability in human liver microsomes assessed as half life; format: ADME, Microsome
[11] = Toxicity in C57 mouse implanted with mouse Lewis lung carcinoma cell line overexpressing PD-L1 assessed as effect on lung viscera index at 20 mg/kg,ip administrated once every three days for 19 days; format: organism-based; details: in vivo, 456 h, time 19 day
[12] = Toxicity in C57 mouse implanted with mouse Lewis lung carcinoma cell line overexpressing PD-L1 assessed as effect on kidney viscera index at 20 mg/kg,ip administrated once every three days for 19 days; format: organism-based; details: in vivo, 456 h, time 19 day
[13] = Toxicity in C57 mouse implanted with mouse Lewis lung carcinoma cell line overexpressing PD-L1 assessed as effect on spleen viscera index at 20 mg/kg,ip administrated once every three days for 19 days; format: organism-based; details: in vivo, 456 h, time 19 day
[14] = Toxicity in C57 mouse implanted with mouse Lewis lung carcinoma cell line overexpressing PD-L1 assessed as effect on heart viscera index at 20 mg/kg,ip administrated once every three days for 19 days; format: organism-based; details: in vivo, 456 h, time 19 day
[15] = Toxicity in C57 mouse implanted with mouse Lewis lung carcinoma cell line overexpressing PD-L1 assessed as reduction in body weight at 20 mg/kg,ip administrated once every three days for 19 days; format: organism-based; details: in vivo, 456 h, time 19 day
[16] = Antitumor activity against mouse Lewis lung carcinoma cell line overexpressing PD-L1 implanted in C57 mouse model assessed as tumor growth inhibition at 20 mg/kg,ip administrated once every three days for 19 days; format: functional; details: 456 h, time 19 day, read-out: TGI
[17] = tested on: CT26; assay: Cytotoxicity against mouse CT26 cells overexpressing PD-L1 assessed as cell growth inhibition at 0.25 to 4096 nM incubated for 48 hrs by MTT assay; format: functional, cell-based; details: dose 0.25-4096 nM
[18] = (§1) Antitumor activity against mouse Lewis lung carcinoma cell line overexpressing PD-L1 implanted in C57 mouse model assessed as increase in infiltration of CD3 positive CD4 positive T cells in tumor by measuring necrotic cells at 20 mg/kg,ip administrated once every three days for 19 days by flow cytometry analysis (reference value: 1.72%); format: functional; details: time 19 day
[19] = as §1, with “late apoptotic” for “necrotic”, “12.07%)” for “1.72%)”; format: functional; details: time 19 day
[20] = tested on: Lewis lung carcinoma; assay: Cytotoxicity against mouse Lewis lung carcinoma cell line assessed as cell growth inhibition at 0.25 to 4096 nM incubated for 48 hrs by MTT assay; format: functional, cell-based; details: dose 0.25-4096 nM
[21] = as §1, with “CD8” for “CD4”, “early apoptotic” for “necrotic”, “1.32%)” for “1.72%)”; format: functional; details: time 19 day
[22] = tested on: CT26; assay: Cytotoxicity against mouse CT26 cells assessed as cell growth inhibition at 0.25 to 4096 nM incubated for 48 hrs by MTT assay; format: functional, cell-based; details: dose 0.25-4096 nM
[23] = as §1, with “viable” for “necrotic”, “83.97%)” for “1.72%)”; format: functional; details: time 19 day
[24] = as §1, with “early apoptotic” for “necrotic”, “2.24%)” for “1.72%)”; format: functional; details: time 19 day
[25] = Antitumor activity against mouse Lewis lung carcinoma cell line overexpressing PD-L1 implanted in C57 mouse model assessed as increase in CD8 positive IFN-gamma positive T cells in tumor at 20 mg/kg,ip administrated once every three days for 19 days by flow cytometry analysis (Rvb =20.66%); format: functional; details: time 19 day
[26] = tested on: Lewis lung carcinoma; assay: Cytotoxicity against mouse Lewis lung carcinoma cell line overexpressing PD-L1 assessed as cell growth inhibition at 0.25 to 4096 nM incubated for 48 hrs by MTT assay; format: functional, cell-based; details: dose 0.25-4096 nM
[27] = as §1, with “CD8” for “CD4”, “late apoptotic” for “necrotic”, “9%)” for “1.72%)”; format: functional; details: time 19 day
[28] = tested on: Lewis lung carcinoma; assay: Antitumor immunity against mouse Lewis lung carcinoma cell line overexpressing PD-L1 co-cultured with concanavalin A stimulated BALB/c mouse spleen T cell assessed as increase in T cell infiltration into tumor matrix at 80 nM incubated for 48 to 72 hrs by fluorescence microscopy; format: functional, cell-based; details: time 48-72 hrs
[29] = Metabolic stability in rat liver microsomes assessed as half life; format: ADME, Microsome
[30] = as §1, with “CD8” for “CD4”, “5.17%)” for “1.72%)”; format: functional; details: time 19 day
[31] = Metabolic stability in human liver microsomes assessed as intrinsic clearance; format: ADME, Microsome; details: read-out: CLH
[32] = Antitumor activity against mouse Lewis lung carcinoma cell line overexpressing PD-L1 implanted in C57 mouse model assessed as increase in CD8 positive GzmB positive T cells in tumor at 20 mg/kg,ip administrated once every three days for 19 days by flow cytometry analysis (reference value: 9.11%); format: functional; details: time 19 day
[33] = Metabolic stability in rat liver microsomes assessed as intrinsic clearance; format: ADME, Microsome; details: read-out: CLH
[34] = Toxicity in C57 mouse implanted with mouse Lewis lung carcinoma cell line overexpressing PD-L1 assessed as effect on liver viscera index at 20 mg/kg,ip administrated once every three days for 19 days; format: organism-based; details: in vivo, 456 h, time 19 day
[35] = as §1, with “CD8” for “CD4”, “viable” for “necrotic”, “84.51%)” for “1.72%)”; format: functional; details: time 19 day
[36] = tested on: Lewis lung carcinoma; assay: Antitumor immunity against mouse Lewis lung carcinoma cell line overexpressing PD-L1 co-cultured with concanavalin A stimulated BALB/c mouse spleen T cell assessed as increase in T cell infiltration into tumor matrix at 20 nM incubated for 48 to 72 hrs by fluorescence microscopy; format: functional, cell-based; details: time 48-72 hrs

Structure (SMILES): COCCNCc1cnc2c(N3CCc4c(-c5ccc6c(c5)OCCO6)cccc43)ncnc2c1
- IC50 [1]: 15.5 nM

Structure (SMILES): O=C(O)[C@H]1CCCN1Cc1cnc2c(N3CCc4c(-c5ccccc5)cccc43)ncnc2c1
- IC50 [1]: 22.7 nM

Structure (SMILES): O=C(O)[C@@H]1CCN(Cc2cnc3c(N4CCc5c(-c6ccccc6)cccc54)nccc3c2)C1
- IC50 [1]: 67.9 nM

Structure (SMILES): CC(=O)NCCNCc1ccc2c(N3CCc4c(-c5ccccc5)cccc43)ncnc2c1
- IC50 [1]: 126 nM

Structure (SMILES): OCCNCc1cnc2c(N3CCc4c(-c5ccccc5)cccc43)nccc2c1
- IC50 [1]: 31.7 nM

Structure (SMILES): OC[C@@H]1CCN(Cc2cnc3c(N4CCc5c(-c6ccccc6)cccc54)ncnc3c2)C1
- IC50 [1]: 16 nM

Structure (SMILES): c1ccc(-c2cccc3c2CCN3c2ncnc3cc(CNC4CCOCC4)ccc23)cc1
- IC50 [1]: 108 nM

Structure (SMILES): NS(=O)(=O)NCCNCc1cnc2c(N3CCc4c(-c5ccccc5)cccc43)ncnc2c1
- IC50 [1]: 21.1 nM

- half-life [10]: 1.85 h
Structure (SMILES): CC(=O)NCCNCc1cnc2c(N3CCc4c(-c5ccccc5)cccc43)ncnc2c1
- Activity [2]: 45.07%
- Activity [3]: Active
- Activity [4]: Active
- Activity [5]: 51.57%
- Activity [6]: 43.99%
- Activity [7]: 22.16%
- Activity [8]: 18.56%
- Activity [9]: 55.7%
- IC50 [1]: 3.9 nM

- half-life [29]: 2.64 h
- microsomal CLint [31]: 6.9 µL/min/mg
- microsomal CLint [33]: 8.8 µL/min/mg
- half-life [10]: 3.34 h
Structure (SMILES): CC(C)(CO)NCc1cnc2c(N3CCc4c(-c5ccccc5)cccc43)ncnc2c1
- Activity [11]: Toxic
- Activity [12]: Non-Toxic
- Activity [13]: Non-Toxic
- Activity [2]: 61.21%
- Activity [14]: Non-Toxic
- Activity [3]: Active
- Activity [4]: Active
- Activity [15]: Toxic
- inhibition in vivo at 20 mg/kg [16]: 61.9%
- Activity [17]: inactive
- Activity [18]: 0.78%
- Activity [19]: 22.29%
- Activity [20]: inactive
- Activity [21]: 4.77%
- Activity [22]: inactive
- Activity [23]: 73.8%
- Activity [5]: 54.61%
- Activity [24]: 3.13%
- Activity [25]: 31.1%
- Activity [26]: inactive
- Activity [27]: 17.77%
- Activity [28]: Active
- Activity [30]: 2.4%
- Activity [6]: 56.41%
- Activity [7]: 26.32%
- Activity [8]: 23.79%
- Activity [32]: 21.13%
- Activity [9]: 62.69%
- Activity [34]: Non-Toxic
- Activity [35]: 75.06%
- IC50 [1]: 6.3 nM
- Activity [36]: Active

Structure (SMILES): CC(C)(CO)NCc1cnc2c(N3CCc4c(-c5ccccc5)cccc43)nccc2c1
- IC50 [1]: 44.4 nM

Structure (SMILES): CC(=O)NCCNCc1cnc2c(N3CCc4c(-c5ccccc5)cccc43)nccc2c1
- IC50 [1]: 84.5 nM

Structure (SMILES): CC(C)(CO)NCc1cnc2c(N3CCc4c(-c5ccc6c(c5)OCCO6)cccc43)ncnc2c1
- IC50 [1]: 14.1 nM

Structure (SMILES): OCCNCc1ccc2c(N3CCc4c(-c5ccccc5)cccc43)ncnc2c1
- IC50 [1]: 43.4 nM

- half-life [10]: 0.373 h
Structure (SMILES): O=C(c1ncc(CNC2CCOCC2)s1)N1CCc2c(-c3ccc4c(c3)OCCO4)cccc21
- Activity [3]: Active
- Activity [4]: Active
- Activity [5]: 59.1%
- Activity [9]: 60.49%
- IC50 [1]: 18.9 nM

Structure (SMILES): O=C(O)[C@@H]1CCCN1Cc1cnc2c(N3CCc4c(-c5ccc6c(c5)OCCO6)cccc43)ncnc2c1
- IC50 [1]: 15.8 nM
